Data taken from patent US11045409B2, “Composition comprising a water-insoluble solid organic UV-screening agent and a compound capable of establishing hydrogen bonds” (L'OREAL, priority 2013, dated 2021).

Assay: Maximum solubility of UV-screening agents in compound (B)/isododecane mixtures
Type: physicochemical
Conditions: sonication 45° C. 30 minutes, stable two months at room temperature
Procedure: Solubility Test of the Screening Agents (A) in Mixtures of Compounds (B) and of Isododecane —
300 mg of water-insoluble solid UV-screening agent (A) or of UV-screening agent outside the invention were weighed out in a 10 ml flask, and compound (B) (as a mixture at 50% by weight in isododecane) was then added in increasing amounts until dissolution of the screening agent was complete. The dissolution was performed by sonication at 45° C. for 30 minutes, followed by cooling to room temperature. […] The maximum solubility was given in w/w %, which represents the mass percentage of UV-screening agent in the (B)/isododecane/UV-screening agent mixture. The maximum solubility of the solid screening agent (A) in a solution of isododecane alone (Bo) was also measured as reference.

[1] = in compound (B1) at 50% by weight in isododecane
[2] = in compound (B2) at 50% by weight in isododecane
[3] = in isododecane alone (B0), reference

| Maximum solubility of the UV-screening agent [1] | Maximum solubility of the UV-screening agent [2] | Maximum solubility of the UV-screening agent [3] | SMILES |
| --- | --- | --- | --- |
| 15 w/w % | 15 w/w % | 1 w/w % | COc1ccc(C(=O)CC(=O)c2ccc(C(C)(C)C)cc2)cc1 [UV-screening agent No. 1, Butylmethoxydibenzoylmethane] |
| 5 w/w % | 5 w/w % | 1 w/w % | CCCCC(CC)COc1ccc(-c2nc(-c3ccc(OC)cc3)nc(-c3ccc(OCC(CC)CCCC)cc3O)n2)c(O)c1 (stereo not drawn) [UV-screening agent No. 8, 2,4-bis{[4-(2-ethylhexyloxy)-2-hydroxy]phenyl}-6-(4-methoxyphenyl)-1,3,5-triazine] |
| 2.5 w/w % | 5 w/w % | insoluble | CCCCCCCCOC(=O)/C(C#N)=C\C=C\N(CC)CC [UV-screening agent No. 4] |
| 5 w/w % | 2.5 w/w % | insoluble | CCCCCCCCOC(=O)/C(C#N)=C\C=C\N(CCO)CCO [UV-screening agent No. 3] |

| SMILES | Maximum solubility of the UV-screening agent [1] | Maximum solubility of the UV-screening agent [2] | Maximum solubility of the UV-screening agent [3] |
| --- | --- | --- | --- |
| Cc1cc(CC(C)C[Si](C)(O[Si](C)(C)C)O[Si](C)(C)C)c(O)c(-n2nc3ccccc3n2)c1 (stereo not drawn) [UV-screening agent No. 2, Drometrizole Trisiloxane] | 30 w/w % | 30 w/w % | 5 w/w % |
